The values that follow come from patent US7601716B2, “Pyridopyrazines and derivatives thereof as ALK and c-Met inhibitors” (Cephalon, Inc., priority 2006, dated 2009).

The target in data set [1] is T1, c-Met (cytoplasmic domain) (Homo sapiens, UniProt P08581).
T1 construct: Reactions were initiated with 30 ng/mL c-Met (cytoplasmic domain, Invitrogen Corporation #PV3143); purchased Invitrogen Corporation PV3143
Briefly: c-Met Kinase Assay (ELISA/TRF, PLC-γ substrate). The following applies: 3 μM ATP (Km level); read-out: c-Met Kinase Inhibition (IC50). In kind it is biochemical. In outline:
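c-Met cytoplasmic domain (30 ng/mL) phosphorylates plate-coated GST–PLC-γ for 15 min at 37 °C. Phosphotyrosine detected with Eu-labeled PT66 antibody by time-resolved fluorescence. IC50 from variable-slope sigmoidal fit of % inhibition vs log concentration.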
In general terms: In an ELISA, binding on a coated surface is turned into a signal by an enzyme label.

Data set [2] concerns the target baculovirus-expressed ALK (Homo sapiens, UniProt Q9UM73). Briefly: ALK Kinase Assay (ELISA/TRF, PLC-γ substrate). Also: 1 µM ATP (Km level). The following applies: read-out: ALK Kinase Inhibition (IC50). In kind it is biochemical. In outline: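 Plates coated with GST-PLC-γ substrate (10 µg/mL in TBS), then reaction started with 30 ng/ml baculovirus-expressed ALK, 15 min at 37 °C. Phosphotyrosine detected by Eu-labeled PT66 antibody and time-resolved fluorescence. IC50 from variable-slope sigmoidal fit of percent inhibition versus log concentration.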

T1 sequence (P08581 956-1390 limits assumed): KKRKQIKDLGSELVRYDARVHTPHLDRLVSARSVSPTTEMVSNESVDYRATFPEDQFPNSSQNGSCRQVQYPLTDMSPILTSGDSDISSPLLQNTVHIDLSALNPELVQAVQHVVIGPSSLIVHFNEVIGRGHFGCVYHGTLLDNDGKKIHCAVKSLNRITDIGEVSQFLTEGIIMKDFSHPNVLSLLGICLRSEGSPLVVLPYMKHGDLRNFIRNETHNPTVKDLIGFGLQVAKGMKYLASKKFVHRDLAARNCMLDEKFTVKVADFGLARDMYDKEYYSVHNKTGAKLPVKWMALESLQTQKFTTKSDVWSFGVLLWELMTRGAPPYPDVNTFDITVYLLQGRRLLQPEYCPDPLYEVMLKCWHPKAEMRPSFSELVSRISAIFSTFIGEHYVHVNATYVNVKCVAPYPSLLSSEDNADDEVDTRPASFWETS
baculovirus-expressed ALK, sequence (Q9UM73 19-1620): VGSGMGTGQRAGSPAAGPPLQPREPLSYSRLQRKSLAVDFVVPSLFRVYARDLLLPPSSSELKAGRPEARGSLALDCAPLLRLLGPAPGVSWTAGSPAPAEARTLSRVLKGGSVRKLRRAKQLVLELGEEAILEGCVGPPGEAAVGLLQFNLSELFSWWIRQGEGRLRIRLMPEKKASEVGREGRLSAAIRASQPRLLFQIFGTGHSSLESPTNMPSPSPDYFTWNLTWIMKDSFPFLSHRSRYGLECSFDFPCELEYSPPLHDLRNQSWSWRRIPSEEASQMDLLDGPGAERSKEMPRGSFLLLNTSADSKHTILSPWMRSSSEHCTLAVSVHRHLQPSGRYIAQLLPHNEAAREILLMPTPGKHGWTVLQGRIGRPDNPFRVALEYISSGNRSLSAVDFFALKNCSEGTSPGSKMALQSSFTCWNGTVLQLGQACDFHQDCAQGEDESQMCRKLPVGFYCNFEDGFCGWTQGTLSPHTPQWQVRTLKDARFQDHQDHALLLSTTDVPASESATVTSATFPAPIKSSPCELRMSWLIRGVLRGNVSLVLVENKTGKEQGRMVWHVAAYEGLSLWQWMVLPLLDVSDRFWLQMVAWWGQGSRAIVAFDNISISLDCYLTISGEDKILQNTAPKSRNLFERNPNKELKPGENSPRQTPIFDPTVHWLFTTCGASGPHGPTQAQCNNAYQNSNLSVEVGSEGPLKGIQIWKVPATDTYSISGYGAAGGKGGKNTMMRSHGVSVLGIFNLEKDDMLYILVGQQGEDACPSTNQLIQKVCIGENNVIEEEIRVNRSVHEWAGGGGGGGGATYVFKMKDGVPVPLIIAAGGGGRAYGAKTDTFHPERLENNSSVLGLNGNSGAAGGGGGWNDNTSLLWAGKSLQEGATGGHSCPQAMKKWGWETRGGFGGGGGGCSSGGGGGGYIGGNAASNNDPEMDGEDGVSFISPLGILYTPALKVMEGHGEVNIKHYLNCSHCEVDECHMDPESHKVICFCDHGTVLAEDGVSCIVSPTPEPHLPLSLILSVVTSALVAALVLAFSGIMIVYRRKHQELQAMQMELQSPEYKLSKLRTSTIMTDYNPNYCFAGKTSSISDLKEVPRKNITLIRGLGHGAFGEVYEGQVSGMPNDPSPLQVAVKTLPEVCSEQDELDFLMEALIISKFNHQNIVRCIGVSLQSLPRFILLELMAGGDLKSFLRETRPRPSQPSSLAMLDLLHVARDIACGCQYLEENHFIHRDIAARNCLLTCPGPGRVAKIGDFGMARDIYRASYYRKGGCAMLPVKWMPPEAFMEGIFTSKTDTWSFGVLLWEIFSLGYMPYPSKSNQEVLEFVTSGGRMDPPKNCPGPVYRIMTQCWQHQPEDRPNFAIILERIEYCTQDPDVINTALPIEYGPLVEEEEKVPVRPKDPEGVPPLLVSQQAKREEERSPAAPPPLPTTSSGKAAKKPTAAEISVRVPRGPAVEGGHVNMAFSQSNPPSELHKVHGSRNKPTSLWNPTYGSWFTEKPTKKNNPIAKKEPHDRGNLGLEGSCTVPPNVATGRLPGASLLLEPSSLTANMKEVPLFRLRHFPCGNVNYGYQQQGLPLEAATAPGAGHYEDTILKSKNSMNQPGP

One may read the IC50 as the concentration needed to halve the response being measured. The term melting point denotes the temperature, or range, at which the solid turns liquid. `Clc1ccc(Cl)c(CN2CCNc3ncc(I)cc32)c1` [Example 158, 1-(2,5-Dichlorobenzyl)-7-iodo-1,2,3,4-tetrahydropyrido[2,3-b]pyrazine] had a melting point of 169 °C. In addition, the IC50 in data set [1] was over 100 µM. In addition, in data set [2], the IC50 fell in the range of 1 to 10 µM.
Taken in the same sequence, the figures for `O=C(c1ccc(-c2cnc3c(c2)N(Cc2c(Cl)cccc2Cl)C(=O)CN3)cc1)N1CCC(N2CCCC2)CC1` [Example 161, 1-(2,6-Dichlorobenzyl)-7-[4-(4-(pyrrolidin-1-yl)piperidine-1-carbonyl)phenyl]-3,4-dihydro-1H-pyrido[2,3-b]pyrazin-2-one] were 199 °C, 0.1 to 1 µM and 0.1 to 1 µM.
The like results for `Clc1cccc(Cl)c1CN1CCNc2ncc(I)cc21` [Example 162, 1-(2,6-Dichlorobenzyl)-7-iodo-1,2,3,4-tetrahydropyrido[2,3-b]pyrazine] were, in that order, over 200 °C, 10 to 100 µM and 1 to 10 µM.
The like results for `Clc1ccc(Cl)c(CN2CCNc3ncc(-c4ccc(Cl)nc4)cc32)c1` [Example 165, 7-(6-Chloropyridin-3-yl)-1-(2,5-dichlorobenzyl)-1,2,3,4-tetrahydropyrido[2,3-b]pyrazine] were, in that order, 205 °C, over 100 µM and 0.1 to 1 µM.
On to `Clc1ccc(Cl)c(CN2CCNc3ncc(-c4ccc(N5CCCC5)nc4)cc32)c1` [Example 166, 1-(2,5-Dichlorobenzyl)-7-(6-pyrrolidin-1-yl-pyridin-3-yl)-1,2,3,4-tetrahydropyrido[2,3-b]pyrazine], for which the melting point is over 200 °C. Further, the IC50 in data set [1] is over 100 µM. Moreover, the IC50 in data set [2] was 0.1 to 1 µM.
Taken in the same sequence, the figures for `Clc1cc(-c2cnc3c(c2)N(Cc2c(Cl)cccc2Cl)CCN3)ccn1` [Example 167, 7-(2-Chloropyridin-4-yl)-1-(2,6-dichlorobenzyl)-1,2,3,4-tetrahydropyrido[2,3-b]pyrazine] were 194 °C, 10 to 100 µM and 0.1 to 1 µM.
Compound `NCC#Cc1cnc2c(c1)N(Cc1cc(Cl)ccc1Cl)CCN2` [Example 169, 3-[1-(2,5-Dichlorobenzyl)-1,2,3,4-tetrahydropyrido[2,3-b]pyrazin-7-yl]prop-2-ynylamine] gave a melting point of 183 °C. Besides, the concentration for half-maximal inhibition (IC50) in data set [1] was in the range of 10 to 100 µM. In addition, the IC50 in data set [2] is 0.1 to 1 µM.
The like results for `CN(C)CC(=O)NCC#Cc1cnc2c(c1)N(Cc1c(Cl)cccc1Cl)CCN2` [Example 172, N-{3-[1-(2,6-Dichlorobenzyl)-1,2,3,4-tetrahydropyrido[2,3-b]pyrazin-7-yl]prop-2-ynyl}-2-dimethylamino-acetamide] were, in that order, over 200 °C, 10 to 100 µM and 0.1 to 1 µM.
Taken in the same sequence, the figures for `CN(C)CC#Cc1cnc2c(c1)N(Cc1cc(Cl)ccc1Cl)CCN2` [Example 173, {3-[1-(2,5-Dichlorobenzyl)-1,2,3,4-tetrahydropyrido[2,3-b]pyrazin-7-yl]prop-2-ynyl}-dimethylamine] were 168 °C, 1 to 10 µM and 1 to 10 µM.
As for `O=S1(=O)CCN(CC#Cc2cnc3c(c2)N(Cc2cc(Cl)ccc2Cl)CCN3)CC1` [Example 174, 1-(2,5-Dichlorobenzyl)-7-[3-(1,1-dioxo-1λ^6-thiomorpholin-4-yl)prop-1-ynyl]-1,2,3,4-tetrahydropyrido[2,3-b]pyrazine], the melting point was over 200 °C. The half-maximal inhibitory concentration (IC50) in data set [1] is 10 to 100 µM. In data set [2], the IC50 lay in the range of 0.1 to 1 µM.
`CC(c1c(F)ccc(F)c1Cl)N1CCNc2ncc(I)cc21` (stereo not drawn) [Example 176, 1-[1-(2-Chloro-3,6-difluorophenyl)ethyl]-7-iodo-1,2,3,4-tetrahydropyrido[2,3-b]pyrazine] showed a melting point of 166 °C. Also, the IC50 in data set [1] fell in the range of 10 to 100 µM. For the same compound, in data set [2], the concentration for half-maximal inhibition (IC50) lay in the range of 1 to 10 µM.
The like results for `O=C1CNc2ncc(I)cc2N1Cc1cccc(F)c1C(F)(F)F` [Example 178, 1-[3-Fluoro-2-(trifluoromethyl)benzyl]-7-iodo-3,4-dihydro-1H-pyrido[2,3-b]pyrazin-2-one] were, in that order, over 200 °C, 10 to 100 µM and over 100 µM.
`CC(C)CCn1cc(-c2cnc3c(c2)N(Cc2c(F)ccc(F)c2Cl)CCN3)cn1` [Example 191, 1-(2-Chloro-3,6-difluorobenzyl)-7-[1-(3-methylbutyl)-1H-pyrazol-4-yl]-1,2,3,4-tetrahydropyrido[2,3-b]pyrazine] registered a melting point of 134 °C. Also, the concentration for half-maximal inhibition (IC50) in data set [1] fell in the range of 0.1 to 1 µM. Moreover, the IC50 in data set [2] was in the range of 0.1 to 1 µM.
As for `Fc1ccc(F)c(CN2CCNc3ncc(-c4cn[nH]c4)cc32)c1Cl` [Example 192, 1-(2-Chloro-3,6-difluorobenzyl)-7-(1H-pyrazol-4-yl)-1,2,3,4-tetrahydropyrido[2,3-b]pyrazine], the melting point turned out to be 272 °C. Further, in data set [1], the concentration for half-maximal inhibition (IC50) is 0.1 to 1 µM. Moreover, the IC50 in data set [2] is under 0.1 µM.
Taken in the same sequence, the figures for `CCOC(=O)c1ccc(-c2cnc3c(c2)N(Cc2cc(Cl)ccc2C(F)(F)F)CCN3)cc1` [Example 193, 4-{1-[5-Chloro-2-(trifluoromethyl)benzyl]-1,2,3,4-tetrahydropyrido[2,3-b]pyrazin-7-yl}benzoic acid ethyl ester] were 154 °C, over 100 µM and over 100 µM.
In turn, `CCOC(=O)c1cccc(-c2cnc3c(c2)N(Cc2cc(Cl)ccc2C(F)(F)F)CCN3)c1` [Example 194, 3-{1-[5-Chloro-2-(trifluoromethyl)benzyl]-1,2,3,4-tetrahydropyrido[2,3-b]pyrazin-7-yl}benzoic acid ethyl ester] showed a melting point of 174 °C. In data set [1], the IC50 is over 100 µM. Moreover, the IC50 in data set [2] lay in the range of 0.1 to 1 µM.
The like results for `Cn1cc(-c2cnc3c(c2)N(Cc2cc(Cl)ccc2C(F)(F)F)CCN3)cn1` [Example 203, 1-[5-Chloro-2-(trifluoromethyl)benzyl]-7-(1-methyl-1H-pyrazol-4-yl)-1,2,3,4-tetrahydropyrido[2,3-b]pyrazine] were, in that order, 156 °C, 1 to 10 µM and 0.1 to 1 µM.
The like results for `O=C(c1ccc(-c2cnc3c(c2)N(Cc2cc(Cl)ccc2C(F)(F)F)CCN3)cc1)N1CCCCC1` [Example 204] were, in that order, 216 °C, 10 to 100 µM and 0.1 to 1 µM.
Regarding `O=C(O)CCNc1cccc(Br)n1` [Example 265, 3-(6-bromo-pyridin-2-ylamino)propionic acid], the melting point was in the range of 108 to 109 °C. Moreover, the 50% inhibitory concentration (IC50) in data set [1] was over 100 µM. The IC50 in data set [2] was over 100 µM.
Consider `O=C1CCNc2nc(Br)ccc21` [Example 266, 7-bromo-2,3-dihydro-1H-[1,8]naphthyridin-4-one], for which the melting point is 196 to 197 °C. Besides, the half-inhibitory concentration (IC50) in data set [1] is over 100 µM. The concentration for half-maximal inhibition (IC50) in data set [2] is over 100 µM.
`OC1CCNc2nc(Br)ccc21` (stereo not drawn) [Example 267, 7-bromo-1,2,3,4-tetrahydro-[1,8]naphthyridin-4-ol] showed a melting point of 130 to 131 °C. The IC50 in data set [1] is over 100 µM. Also, the concentration for half-maximal inhibition (IC50) in data set [2] was in the range of 10 to 100 µM.
With `OC1CCNc2ncc(Br)cc21` (stereo not drawn) [Example 268, 6-bromo-1,2,3,4-tetrahydro-[1,8]naphthyridin-4-ol], the melting point fell in the range of 125 to 128 °C. In data set [1], the concentration for half-maximal inhibition (IC50) was over 100 µM. In data set [2], the half-inhibitory concentration (IC50) was over 100 µM.
On to `CN1CCN(c2ccc(-c3cnc4c(c3)C(O)CCN4)cn2)CC1` (stereo not drawn) [Example 269, 6-[6-(4-Methyl-piperazin-1-yl)pyridin-3-yl]-1,2,3,4-tetrahydro-[1,8]naphthyridin-4-ol], for which the melting point is 124 to 128 °C. The IC50 in data set [1] was 10 to 100 µM. In addition, the IC50 in data set [2] is over 100 µM.
The like results for `Clc1cccc(OC2CCNc3ncc(-c4ccc(N5CCOCC5)cc4)cc32)c1` (stereo not drawn) [Example 280, 4-(3-Chlorophenoxy)-6-(4-morpholin-4-yl-phenyl)-1,2,3,4-tetrahydro-[1,8]naphthyridine] were, in that order, 124 to 126 °C, 10 to 100 µM and 1 to 10 µM.
The like results for `Fc1ccc(F)c(/C=C2/CCNc3nc(Br)ccc32)c1` [Example 283, 7-Bromo-4-[1-(2,5-difluorophenyl)methylidene]-1,2,3,4-tetrahydro-[1,8]naphthyridine] were, in that order, 178 to 179 °C, over 100 µM and over 100 µM.
`O=C(c1ccc(-c2cnc3c(c2)N(Cc2cc(Cl)ccc2C(F)(F)F)CCN3)cc1)N1CCN(c2nccs2)CC1` [Example 288, (4-{1-[5-Chloro-2-(trifluoromethyl)benzyl]-1,2,3,4-tetrahydropyrido[2,3-b]pyrazin-7-yl}phenyl)-(4-thiazol-2-yl-piperazin-1-yl)methanone]: the melting point was in the range of 243 to 244 °C. Further, in data set [1], the IC50 was in the range of 10 to 100 µM. Also, the 50% inhibitory concentration (IC50) in data set [2] was in the range of 0.1 to 1 µM.
`N#Cc1c(F)ccc(F)c1CN1CCNc2ncc(-c3ccc(N4CCOCC4)nc3)cc21` [Example 289, 3,6-Difluoro-2-[7-(6-morpholin-4-yl-pyridin-3-yl)-3,4-dihydro-2H-pyrido[2,3-b]pyrazin-1-ylmethyl]benzonitrile] came in with a melting point of 188 to 190 °C. Besides, the 50% inhibitory concentration (IC50) in data set [1] lay within 0.1 to 1 µM. For the same compound, the IC50 in data set [2] was under 0.1 µM.
